Measurements taken from publication PMC6382874, “Succinylation-dependent mitochondrial translocation of PKM2 promotes cell survival in response to nutritional stress” (Cell Death & Disease, 2019).
Where two headings read alike, the source gives them in different places. Peptide text beside a SMILES is read from it. * marks the point of attachment. Cbz = O=C(OCc1ccccc1)*

What was measured:
tumor cell = details: cited from earlier work
PKM2 [1] = tested on: PKM2; parameters: method as in PMID 20005212; details: high-throughput screen; cited from earlier work
VDAC3 = VDAC3 protein level (western blot) in HCT116 cells; format: cell-based, human; details: 10 μM, 8 h, HCT116
Description: HCT116 cell lysates were subject to immunoprecipitation with control IgG and anti-VDAC3 antibodies. d, e In vitro binding assay of purified His-tagged-PKM2 and GST-tagged-VDAC3. f K433E enhanced the interaction of PKM2 and VDAC3. Stagged-WT PKM2, a succinylation mimic K433E and a succinylation null mutant K433R and flag-VDAC3 were co-transfected into HCT116 cells for Stag bead pull down that specially pulls down Stagged proteins. g Glucose starvation enhanced the interaction of PKM2 and VDAC3. […]
Fig. 6 Compound 8 blocks PKM2 mitochondrial translocation under nutritional stress and inhibits tumor growth in vivo. a Compound 8 blocks glucose starvation induced PKM2 mitochondrial translocation. […] HCT116 cells were transfected with HA-tagged PKM2, cells were harvested and subjected to stag pull down after 8 h 20 µM compound 8 treatment. c Compound 8 induces VDAC3 for degradation. cells were harvested and evaluated VDAC3 protein levels after 8 h 10 or 20 µM compound 8 treatment. d, e Compound 8 caused a decrease in the rate of NADH oxidation. […] NAD/NADH ratios in HCT116 cell lysates were evaluated by LC–MS. f Compound 8 inhibited ATP production in HCT116 cells. g The tumor volume (n = 7) of HCT116 xenografts from mice with intraperitoneal injection of compound 8 and vehicle control […]

PKM1 = target: T1, PKM1 (Homo sapiens, UniProt P14618); assay: fluorescent PK-LDH coupled assay, PKM1; format: biochemical
T1 construct: His-tag (N); made in house; host or cells: Escherichia coli BL21
Experimental: (§1) Human cDNA for PKM2, PKM1, and VDAC3 were separately cloned into a pET28a (+) and pGEX-4T-1 vector with an N-terminal His-tag and N-terminal GST-tag and purified from the Escherichia coli strain BL21 (Invitrogen) using Ni–agarose beads and GST agarose beads (Qiagen) as described previously. PKL was purchased from Sino Biological Inc. in China.
(§2) Pyruvate kinase activity was measured with a fluorescent pyruvate kinase–lactate dehydrogenase coupled assay as described previously. All compounds were tested in a kinetic mode by coupling the generation of pyruvate by pyruvate kinase to the depletion of NADH through lactate dehydrogenase. For PKM2, 40 μL of buffer (50 mM Tris–HCl, pH 7.5, 10 mM KCl, 5 mM MgCl2), 1 μL of compound and 5 μL of enzyme solution were dispensed into Corning black solid 96-well plates and incubated for 15 min. Totally, 55 μL of substrate mix (final concentration, 0.5 mM PEP, 4.0 mM ADP, 0.12 mM NADH, 0.25 mM FBP, and 1 unit LDH) were then added, and the plates were placed in a FlexStation3 (Molecular Devices), followed by determination of NADH fluorescence at 30 s exposure intervals for 3–6 min. Data were collected on a FlexStation3.

PKL = target: T2, PKL (Homo sapiens, UniProt P30613); assay: fluorescent PK-LDH coupled assay, PKL; format: biochemical
T2 construct: purchased Sino Biological Inc
Experimental: as §1, §2

MCF7 cells = assay: cell viability test, MCF7; format: cell-based; details: Homo sapiens, MCF7, 48 h, read-out: IC50 (MCF7)
Experimental: (§3) We assessed the anti-tumor effects of compound 8 by evaluation of cancer cell viability. Compound 8 reduced cell viability with an IC50 of about 5 µM in MTT reduction assays in HCT116, MCF7, and H1299 cells (Table 2). […] To determine whether cancer cell death brought about by compound 8 is PKM2 dependent, PKM2 was knocked down in HCT116 cells using two different shRNA sequences that specifically targeted exon 10 without interfering with PKM1 expression. Compound 8 is an inhibitor which causes a loss of function of PKM2. If PKM2 is a specially targeted by compound 8, its knockdown should render cells more vulnerable to compound 8-mediated PKM2 inhibition since shRNA and compound 8 work synergistically by reducing the intracellular drug target concentration.
(§4) Cells were seeded in 96-well plates at 5000 cells/well in DMEM media overnight. Cells were treated with different concentrations of test compound for 48 h at 37 °C in 5% CO2. Cell viability was assayed with the MTS assay (Promega) and trypan blue staining according to the manufacturer’s instructions.

PKM2 [2] = target: PKM2 (Homo sapiens, UniProt P14618); assay: fluorescent pyruvate kinase-lactate dehydrogenase (PK-LDH) coupled assay, PKM2; format: biochemical; parameters: His-tag (N); made in house; host or cells: Escherichia coli BL21
Experimental: A random screening of an in-house small molecule library (~1000 total molecules) was undertaken to identify new PKM2 modulators, which can block the interaction of PKM2 and VDAC3. The activity of these test compounds was assessed with a fluorescent PK-LDH coupled assay by a previously reported method (Supplementary Figure S4a)[37]. […] We undertook structural optimization by chemical modification. We designed new compounds utilizing a methyl group instead of the NP-1 chlorine moiety. Synthesis of target compounds was carried out according to the six-step protocol outlined in Supplementary Figure S4d, which was based on a previously described procedure[39],[40].
as §1, §2

H1299 cells = assay: cell viability test, H1299; format: cell-based; details: Homo sapiens, NCI-H1299, 48 h, read-out: IC50 (H1299)
Experimental: as §3, §4

HCT116 cells = assay: cell viability test, HCT116; format: cell-based, human; details: Homo sapiens, HCT-116, 48 h, read-out: IC50 (HCT116)
Experimental: as §3, §4

[3] = tested on: PKM2 mitochondrial translocation; assay: PKM2 mitochondrial translocation (fractionation, western blot) in HCT116 cells; format: cell-based, human; details: for PKM2 mitochondrial translocation: HCT116, Supplementary Figure S1a
Experimental: Fig. 6 Compound 8 blocks PKM2 mitochondrial translocation under nutritional stress and inhibits tumor growth in vivo. a Compound 8 blocks glucose starvation induced PKM2 mitochondrial translocation. Isolation of mitochondria and immunoblot of PKM2, tubulin and Tom 40 were carried out with or without compound 8 treatment. b Compound 8 disrupts interaction of PKM2 and VDAC3. HCT116 cells were transfected with HA-tagged PKM2, cells were harvested and subjected to stag pull down after 8 h 20 µM compound 8 treatment. c Compound 8 induces VDAC3 for degradation. cells were harvested and evaluated VDAC3 protein levels after 8 h 10 or 20 µM compound 8 treatment. d, e Compound 8 caused a decrease in the rate of NADH oxidation. After 8 h of treatment with 20 µM compound 8, HCT116 cells mitochondria were isolated for NADH oxidation assays. NAD/NADH ratios in HCT116 cell lysates were evaluated by LC–MS. f Compound 8 inhibited ATP production in HCT116 cells. g The tumor volume (n = 7) of HCT116 xenografts from mice with intraperitoneal injection of compound 8 and vehicle control
HCT116 cells were harvested and washed two times with cold PBS. Cells were then homogenized in a buffer (220 mM mannitol, 70 mM sucrose, 2 mM EGTA, 5 mM MOPS-Tris pH 7.4, 2 mM Taurine, 0.2% BSA). The homogenate was spun for 5 min at 800g.The supernatant containing the cytoplasmic and mitochondrial fractions were transferred to a fresh tube and spun for 5 min at 12,000g. The pellet contained the mitochondrial fraction and the supernatant contained the cytoplasmic fraction.
Cells were lysed in buffer containing 50 mM Tris pH8.0, 2 mM EDTA, 150 mM NaCl, 0.5% Nonidet P-40, 10% glycerol and protease inhibitor PMSF. Western blot analysis was carried out based on standard methods. The following commercial antibodies were used as probes: anti-Flag antibody (Sigma, F3165), anti-HA antibody (Sigma, H3663), anti-α-Tubulin (EasyBio, BE0026–100), anti-PKM2 (RuiYingBio, RLT3777), anti-TOM 40 (Santa Cruz sc-365467), anti-succinyllysine antibody (PTM BIO PTM-901), anti-GAPDH (SanJian).

PKM2 succinylation = details: 100 μM, 10 h, HCT116
Experimental: Mitochondria and nuclear fractions were prepared from HCT116 cells under glucose starvation for 10 h. Immunofluorescence analysis was carried out after 10 h of glucose starvation. […] Analysis of PKM2 succinylation in whole-cell extracts prepared from HCT116 cells treated with increasing concentrations of glucose (0, 5, and 25 mM) or SIRT5 overexpression. Lysates prepared from these cells were pulled down with Flag beads and analyzed with antibody to succinylated lysine. d Effect of glucose starvation on endogenous PKM2 succinylation in cells. Analysis of PKM2 succinylation in whole-cell extracts prepared from HCT116 cells treated with increasing concentrations of glucose (0 and 25 mM). […] HCT116 cells were transfected with expression constructs of GFP-tagged vector control GFP-SIRT5. After 10 h glucose starvation, western blot analysis of cytosolic and mitochondrial fractions was performed to evaluate translocation of PKM2 from the cytosolic compartment to the mitochondria. […] 5000 HCT116 cells stably infected with Flag-PKM2 or Flag-PKM2 K433E virus were seeded into 96-well plates and live cell counts were measured in a blood cell counting chamber with trypan blue staining.

Chain of PKM2 (Homo sapiens, UniProt P14618) (P14618 whole entry): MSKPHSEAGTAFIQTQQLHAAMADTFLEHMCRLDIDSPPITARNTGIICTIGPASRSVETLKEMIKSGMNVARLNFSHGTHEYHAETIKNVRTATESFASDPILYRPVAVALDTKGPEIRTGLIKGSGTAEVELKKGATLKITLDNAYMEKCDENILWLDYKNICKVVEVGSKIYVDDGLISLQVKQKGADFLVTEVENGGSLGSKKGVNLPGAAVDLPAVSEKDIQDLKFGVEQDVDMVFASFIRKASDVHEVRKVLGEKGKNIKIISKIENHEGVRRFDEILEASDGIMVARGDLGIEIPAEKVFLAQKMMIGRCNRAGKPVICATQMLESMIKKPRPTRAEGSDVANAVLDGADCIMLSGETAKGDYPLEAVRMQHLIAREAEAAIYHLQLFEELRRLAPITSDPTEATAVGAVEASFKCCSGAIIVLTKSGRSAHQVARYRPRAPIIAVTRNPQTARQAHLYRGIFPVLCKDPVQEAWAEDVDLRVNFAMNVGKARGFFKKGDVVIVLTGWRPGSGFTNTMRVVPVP
T2 sequence (P30613 1-543 isoform P30613-2, species assumed): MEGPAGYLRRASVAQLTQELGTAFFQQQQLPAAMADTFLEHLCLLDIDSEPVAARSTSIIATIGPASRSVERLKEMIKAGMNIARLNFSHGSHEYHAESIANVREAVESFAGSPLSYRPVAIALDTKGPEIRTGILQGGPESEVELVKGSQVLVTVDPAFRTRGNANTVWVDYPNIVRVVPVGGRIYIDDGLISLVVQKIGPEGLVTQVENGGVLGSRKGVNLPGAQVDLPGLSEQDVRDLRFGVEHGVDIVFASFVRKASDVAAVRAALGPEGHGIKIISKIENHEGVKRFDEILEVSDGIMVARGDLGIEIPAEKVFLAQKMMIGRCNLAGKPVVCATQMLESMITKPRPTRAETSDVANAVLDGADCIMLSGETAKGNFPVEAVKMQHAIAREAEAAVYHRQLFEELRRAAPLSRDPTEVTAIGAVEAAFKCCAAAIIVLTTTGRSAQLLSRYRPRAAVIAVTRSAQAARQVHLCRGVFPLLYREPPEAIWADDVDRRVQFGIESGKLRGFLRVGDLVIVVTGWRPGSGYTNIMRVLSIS
T1 sequence (P14618 1-531 isoform P14618-2): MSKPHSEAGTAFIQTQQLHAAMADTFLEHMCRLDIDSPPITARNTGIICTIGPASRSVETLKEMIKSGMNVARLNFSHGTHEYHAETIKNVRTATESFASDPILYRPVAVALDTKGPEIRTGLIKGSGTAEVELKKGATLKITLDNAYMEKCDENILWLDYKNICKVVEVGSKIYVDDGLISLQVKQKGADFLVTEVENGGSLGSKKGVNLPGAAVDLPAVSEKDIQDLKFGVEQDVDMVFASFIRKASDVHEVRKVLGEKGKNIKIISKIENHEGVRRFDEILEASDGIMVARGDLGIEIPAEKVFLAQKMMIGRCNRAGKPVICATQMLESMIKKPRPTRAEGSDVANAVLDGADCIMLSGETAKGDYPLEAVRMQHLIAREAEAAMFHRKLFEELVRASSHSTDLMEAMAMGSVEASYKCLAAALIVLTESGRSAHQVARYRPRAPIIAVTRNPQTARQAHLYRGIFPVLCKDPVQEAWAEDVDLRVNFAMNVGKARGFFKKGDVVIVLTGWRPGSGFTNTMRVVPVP

Molecule: Cc1ccc(C)n1-c1ccc(O)c(C(=O)O)c1 [Compound 3]
- suppression of tumor cell proliferation (tumor cell): little suppression of tumor cell proliferation below 200 µM
- PKM2 inhibition (PKM2 [1]): inhibits PKM2 activity at micromolar concentrations

Molecule: CC(C)C[C@@H](C=O)NC(=O)[C@H](CC(C)C)NC(=O)[C@H](CC(C)C)NC(=O)OCc1ccccc1 [MG132, reference compound] (Cbz-Leu-Leu-Leu-aldehyde)
- VDAC3 protein level (VDAC3): upregulated VDAC3

Molecule: CC1=C(COP(N)(=O)N(CCCl)CCCl)C(=O)c2ccccc2C1=O (stereo not drawn) [NP-1]
- IC50 (PKM1): 13.7 ± 1.14 µM
- IC50 (PKL): 69.6 ± 6.26 µM
- IC50 (MCF7 cells): 17.5 ± 6.34 µM
- IC50 (PKM2 [2]): 2930 ± 770 nM
- PKM2 inhibitory activity compared with shikonin (PKM2 [2]; Supplementary Figure S4b): more powerful than shikonin
- selectivity for PKM2 over PKM1 and PKL (PKM2 [2]; Supplementary Figure S4c): highly selective, dose-dependent inhibition of PKM2 with less inhibition of PKM1 and PKL
- IC50 (H1299 cells): 8.17 ± 1.92 µM
- IC50 (HCT116 cells): 14.3 ± 3.57 µM

Molecule: CC(C)=CC[C@@H](O)C1=CC(=O)c2c(O)ccc(O)c2C1=O [Shikonin, reference compound]
- IC50 (PKM1; recombinant enzyme, PK-LDH coupled assay, read-out: IC50 (PKM1)): 13 ± 3.37 µM
- IC50 (PKL; PK-LDH coupled assay, read-out: IC50 (PKL)): 39.2 ± 6.53 µM
- induction of cell apoptosis (tumor cell): induces cell apoptosis at low concentrations

Molecule: O=C(O)CCC(=O)O [succinic acid, reference compound]
- mitochondrial PKM2 ([3]; 100 μM, 10 h, HCT116): increased mitochondrial PKM2
- PKM2 succinylation (PKM2 succinylation): increased PKM2 succinylation

Molecule: epidermal growth factor: growth factor used to stimulate HCT116 cells
- PKM2 mitochondrial translocation [3]: did not increase PKM2 mitochondrial translocation

Molecule: insulin: hormone used to stimulate HCT116 cells
- PKM2 mitochondrial translocation [3]: did not increase PKM2 mitochondrial translocation
